Laboratory results from the supplement of paper PMC13207355.

Tests used:
Conditions in all cases: exposure time: 72 h
E13 [1] = patient-derived glioblastoma stem cells of classical subtype; assay: surviving fraction (nuclei count normalised to DMSO); higher = more cells surviving (less toxic)
E21 [2] = patient-derived glioblastoma stem cells of mesenchymal subtype; assay: as above
E28 [3] = patient-derived glioblastoma stem cells of classical subtype; assay: as above
E31 [4] = patient-derived glioblastoma stem cells of proneural subtype; assay: as above
E34 [5] = patient-derived glioblastoma stem cells of proneural subtype; assay: as above
E57 [6] = patient-derived glioblastoma stem cells of mesenchymal subtype; assay: as above
FT3469 [7] = normal neural stem cell line; assay: as above
E13 [8] = assay: phenotypic distance (Euclidean, principal components) from DMSO controls (arbitrary units); higher = stronger morphological change
E21 [9] = assay: as above
E28 [10] = assay: as above
E31 [11] = assay: as above
E34 [12] = assay: as above
E57 [13] = assay: as above
FT3469 [14] = assay: as above
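For phenotypic distance (Euclidean, principal components) from DMSO controls in this document: cell Painting imaging in 384-well plates, CellProfiler features reduced to at least 20 principal components, Euclidean distance versus same-plate DMSO vehicle wells (0.1% v/v), median over six images per well.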
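For surviving fraction (nuclei count normalised to DMSO) in this document: nuclei counted by high-content imaging of Hoechst-stained cells in laminin-coated 384-well plates, relative to 0.1% DMSO vehicle wells, with staurosporine as cell-death control.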

CC1(C(=O)O)C2CCC(O2)C1(C)C(=O)O (stereo unspecified) [Cantharidic Acid]
Conditions | phenotypic distance | surviving fraction
E13 [1], 4.1 nM | – | 0.839
E13 [1], 12.3 nM | – | 0.973
E13 [1], 37 nM | – | 0.995
E13 [1], 111.1 nM | – | 1.11
E13 [1], 333.3 nM | – | 0.921
E13 [1], 1000 nM | – | 1.02
E13 [1], 3000 nM | – | 0.939
E13 [8], 4.1 nM | 0.746 | –
E13 [8], 12.3 nM | 0.673 | –
E13 [8], 37 nM | 0.774 | –
E13 [8], 111.1 nM | 0.872 | –
E13 [8], 333.3 nM | 0.83 | –
E13 [8], 1000 nM | 0.671 | –
E13 [8], 3000 nM | 2.26 | –
E21 [2], 4.1 nM | – | 0.955
E21 [2], 12.3 nM | – | 0.853
E21 [2], 37 nM | – | 1.11
E21 [2], 111.1 nM | – | 1
E21 [2], 333.3 nM | – | 1.03
E21 [2], 1000 nM | – | 0.954
E21 [2], 3000 nM | – | 0.922
E21 [9], 4.1 nM | 0.625 | –
E21 [9], 12.3 nM | 0.711 | –
E21 [9], 37 nM | 1.21 | –
E21 [9], 111.1 nM | 0.773 | –
E21 [9], 333.3 nM | 0.585 | –
E21 [9], 1000 nM | 0.482 | –
E21 [9], 3000 nM | 2.17 | –
E28 [3], 4.1 nM | – | 0.901
E28 [3], 12.3 nM | – | 1.05
E28 [3], 37 nM | – | 0.971
E28 [3], 111.1 nM | – | 1.07
E28 [3], 333.3 nM | – | 1.11
E28 [3], 1000 nM | – | 1.15
E28 [3], 3000 nM | – | 0.771
E28 [10], 4.1 nM | 0.917 | –
E28 [10], 12.3 nM | 0.654 | –
E28 [10], 37 nM | 0.463 | –
E28 [10], 111.1 nM | 0.528 | –
E28 [10], 333.3 nM | 0.599 | –
E28 [10], 1000 nM | 0.909 | –
E28 [10], 3000 nM | 2.54 | –
E31 [4], 4.1 nM | – | 1.07
E31 [4], 12.3 nM | – | 1
E31 [4], 37 nM | – | 1.16
E31 [4], 111.1 nM | – | 1.05
E31 [4], 333.3 nM | – | 1.04
E31 [4], 1000 nM | – | 1.08
E31 [4], 3000 nM | – | 0.683
E31 [11], 4.1 nM | 1.05 | –
E31 [11], 12.3 nM | 0.816 | –
E31 [11], 37 nM | 1.07 | –
E31 [11], 111.1 nM | 1.09 | –
E31 [11], 333.3 nM | 0.68 | –
E31 [11], 1000 nM | 0.624 | –
E31 [11], 3000 nM | 1.67 | –
E34 [5], 4.1 nM | – | 0.916
E34 [5], 12.3 nM | – | 1.08
E34 [5], 37 nM | – | 0.914
E34 [5], 111.1 nM | – | 1.1
E34 [5], 333.3 nM | – | 1.22
E34 [5], 1000 nM | – | 1.06
E34 [5], 3000 nM | – | 0.832
E34 [12], 4.1 nM | 1.38 | –
E34 [12], 12.3 nM | 1.36 | –
E34 [12], 37 nM | 1.46 | –
E34 [12], 111.1 nM | 1.49 | –
E34 [12], 333.3 nM | 1.07 | –
E34 [12], 1000 nM | 0.864 | –
E34 [12], 3000 nM | 3.29 | –
E57 [6], 4.1 nM | – | 0.985
E57 [6], 12.3 nM | – | 0.996
E57 [6], 37 nM | – | 0.944
E57 [6], 111.1 nM | – | 1.03
E57 [6], 333.3 nM | – | 1.04
E57 [6], 1000 nM | – | 1.03
E57 [6], 3000 nM | – | 0.947
E57 [13], 4.1 nM | 0.632 | –
E57 [13], 12.3 nM | 0.322 | –
E57 [13], 37 nM | 0.414 | –
E57 [13], 111.1 nM | 0.564 | –
E57 [13], 333.3 nM | 0.544 | –
E57 [13], 1000 nM | 0.751 | –
E57 [13], 3000 nM | 1.72 | –
FT3469 [7], 4.1 nM | – | 0.889
FT3469 [7], 12.3 nM | – | 0.855
FT3469 [7], 37 nM | – | 1.07
FT3469 [7], 111.1 nM | – | 1.03
FT3469 [7], 333.3 nM | – | 1
FT3469 [7], 1000 nM | – | 1.06
FT3469 [7], 3000 nM | – | 0.777
FT3469 [14], 4.1 nM | 1.06 | –
FT3469 [14], 12.3 nM | 0.717 | –
FT3469 [14], 37 nM | 0.644 | –
FT3469 [14], 111.1 nM | 0.683 | –
FT3469 [14], 333.3 nM | 0.991 | –
FT3469 [14], 1000 nM | 0.653 | –
FT3469 [14], 3000 nM | 2.25 | –

CC1(C)S[C@@H]2[C@H](NC(=O)Cc3ccccc3)C(=O)N2[C@H]1C(=O)O [Benzylpenicillin sodium]
Conditions | phenotypic distance | surviving fraction
E13 [1], 4.1 nM | – | 1.1
E13 [1], 12.3 nM | – | 1.14
E13 [1], 37 nM | – | 1.07
E13 [1], 111.1 nM | – | 1.17
E13 [1], 333.3 nM | – | 1.06
E13 [1], 1000 nM | – | 1.06
E13 [1], 3000 nM | – | 1.08
E13 [8], 4.1 nM | 0.664 | –
E13 [8], 12.3 nM | 1.03 | –
E13 [8], 37 nM | 0.438 | –
E13 [8], 111.1 nM | 0.926 | –
E13 [8], 333.3 nM | 0.678 | –
E13 [8], 1000 nM | 1.04 | –
E13 [8], 3000 nM | 0.985 | –
E21 [2], 4.1 nM | – | 1.06
E21 [2], 12.3 nM | – | 1.11
E21 [2], 37 nM | – | 1.03
E21 [2], 111.1 nM | – | 1.04
E21 [2], 333.3 nM | – | 0.968
E21 [2], 1000 nM | – | 1.14
E21 [2], 3000 nM | – | 0.993
E21 [9], 4.1 nM | 0.889 | –
E21 [9], 12.3 nM | 0.821 | –
E21 [9], 37 nM | 0.791 | –
E21 [9], 111.1 nM | 0.688 | –
E21 [9], 333.3 nM | 4.43 | –
E21 [9], 1000 nM | 1.31 | –
E21 [9], 3000 nM | 0.858 | –
E28 [3], 4.1 nM | – | 1.28
E28 [3], 12.3 nM | – | 1.09
E28 [3], 37 nM | – | 1.38
E28 [3], 111.1 nM | – | 0.946
E28 [3], 333.3 nM | – | 1.14
E28 [3], 1000 nM | – | 1.12
E28 [3], 3000 nM | – | 0.901
E28 [10], 4.1 nM | 0.78 | –
E28 [10], 12.3 nM | 0.57 | –
E28 [10], 37 nM | 0.958 | –
E28 [10], 111.1 nM | 0.61 | –
E28 [10], 333.3 nM | 0.635 | –
E28 [10], 1000 nM | 0.605 | –
E28 [10], 3000 nM | 1.19 | –
E31 [4], 4.1 nM | – | 1.03
E31 [4], 12.3 nM | – | 0.949
E31 [4], 37 nM | – | 1.1
E31 [4], 111.1 nM | – | 1.03
E31 [4], 333.3 nM | – | 1.1
E31 [4], 1000 nM | – | 0.947
E31 [4], 3000 nM | – | 0.879
E31 [11], 4.1 nM | 0.966 | –
E31 [11], 12.3 nM | 0.585 | –
E31 [11], 37 nM | 0.478 | –
E31 [11], 111.1 nM | 0.839 | –
E31 [11], 333.3 nM | 1.16 | –
E31 [11], 1000 nM | 0.685 | –
E31 [11], 3000 nM | 1.21 | –
E34 [5], 4.1 nM | – | 1.11
E34 [5], 12.3 nM | – | 0.981
E34 [5], 37 nM | – | 1.02
E34 [5], 111.1 nM | – | 1.02
E34 [5], 333.3 nM | – | 0.906
E34 [5], 1000 nM | – | 0.865
E34 [5], 3000 nM | – | 0.864
E34 [12], 4.1 nM | 0.752 | –
E34 [12], 12.3 nM | 0.424 | –
E34 [12], 37 nM | 0.561 | –
E34 [12], 111.1 nM | 0.473 | –
E34 [12], 333.3 nM | 0.826 | –
E34 [12], 1000 nM | 0.717 | –
E34 [12], 3000 nM | 1.48 | –
E57 [6], 4.1 nM | – | 1.03
E57 [6], 12.3 nM | – | 0.993
E57 [6], 37 nM | – | 1
E57 [6], 111.1 nM | – | 1.01
E57 [6], 333.3 nM | – | 1.04
E57 [6], 1000 nM | – | 0.87
E57 [6], 3000 nM | – | 0.922
E57 [13], 4.1 nM | 0.898 | –
E57 [13], 12.3 nM | 0.449 | –
E57 [13], 37 nM | 0.995 | –
E57 [13], 111.1 nM | 0.845 | –
E57 [13], 333.3 nM | 1.07 | –
E57 [13], 1000 nM | 0.999 | –
E57 [13], 3000 nM | 1.39 | –
FT3469 [7], 4.1 nM | – | 1.05
FT3469 [7], 12.3 nM | – | 1.29
FT3469 [7], 37 nM | – | 1.05
FT3469 [7], 111.1 nM | – | 1.18
FT3469 [7], 333.3 nM | – | 0.99
FT3469 [7], 1000 nM | – | 1.27
FT3469 [7], 3000 nM | – | 1.12
FT3469 [14], 4.1 nM | 0.569 | –
FT3469 [14], 12.3 nM | 0.961 | –
FT3469 [14], 37 nM | 1.12 | –
FT3469 [14], 111.1 nM | 0.565 | –
FT3469 [14], 333.3 nM | 0.741 | –
FT3469 [14], 1000 nM | 0.951 | –
FT3469 [14], 3000 nM | 1.77 | –
